Reference: the supplement of paper PMC11208160

Test: recombinant UMI read abundance after kanamycin selection (control-corrected) (log10(CPM+1)); higher = more efficient recombination; extreme values may be limits of the assay; sequences stand for … in AGTGCAGAGAAAATCGGCCAGTTTTCTCTGCCTGCAGTCCGCATGCCGTGGGACCCCTTGGGTTCTAACCTGTTGCCTAGATTTATGCAGCGGACTGCCTTTCTCCCAAAGTGATAAACCGG…AGGTTGGTTTCACT; site = the 11-nt donor
Protocol: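 Pooled E. coli donor-specificity screen for the IS621 bridge recombinase. Each library member carries a reprogrammed 11-nt donor and a full-length LE bridge RNA expressed in cis from the natural promoter, with a paired donor-binding loop (8-nt LDG + 4-nt RDG) and a target-binding loop fixed to T5. It is co-electroporated with a T5 target plasmid; recombinase is induced with 0.07 mM IPTG and recombinants are selected on kanamycin. UMIs are counted as CPM, averaged over two biological replicates and corrected by the unselected control. Molecule = full bridge RNA written as DNA, built from the T5 scaffold: LDG = donor specificity nt 1-8, RDG = reverse complement of nt 8-11.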
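Also: IS621 bridge recombinase in Escherichia coli cells against a fixed T5 target plasmid.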

Sequence | recombinant UMI read abundance (log10)
ACGCATCCATGGACCGGTTTTCCCGGTAATCCGTATTTGAC (site ACTCATCCTGT) | 0
ACGCCCTCATGGACCGGTTTTCCCGGTAATCCGTATTTGGG (site ACGCCCTCTCC) | 0.119
ACGCGCCCATGGACCGGTTTTCCCGGTAATCCGTATTTGGT (site ACGCGCCCTAC) | 0.771
ACGCGGACATGGACCGGTTTTCCCGGTAATCCGTATTTGCA (site ACGCGGACTTG) | 2.76
ACGCGGCCATGGACCGGTTTTCCCGGTAATCCGTATTTGCA (site ACGCGGCCTTG) | 1.1
ACGCGTTCATGGACCGGTTTTCCCGGTAATCCGTATTTGCG (site ACGCGTTCTCG) | 1.8
ACGGCATCATGGACCGGTTTTCCCGGTAATCCGTATTTGCA (site ACAGTATCTTG) | 1.47
ACGGCATCATGGACCGGTTTTCCCGGTAATCCGTATTTGCA (site ACGGCATCTTG) | 1.77
ACGGCTACATGGACCGGTTTTCCCGGTAATCCGTATTTGAC (site ACGGCTACTGT) | 2.45
ACGGGACCATGGACCGGTTTTCCCGGTAATCCGTATTTGTA (site ACGGGACCTTA) | 0.00398
ACGGGCACATGGACCGGTTTTCCCGGTAATCCGTATTTGGT (site ACGGGCACTAC) | 0.805
ACGGTATCATGGACCGGTTTTCCCGGTAATCCGTATTTGCG (site ACAGTATCTTG) | 2.27
ACGGTATCATGGACCGGTTTTCCCGGTAATCCGTATTTGCG (site ACGGTATCTCG) | 3.15
ACGGTATCATGGACCGGTTTTCCCGGTAATCCGTATTTGGG (site ACGGTATCTCC) | 1.62
ACGGTATCATGGACCGGTTTTCCCGGTAATCCGTATTTGTA (site ACAGTATCTTG) | 2.09
ACGGTATCATGGACCGGTTTTCCCGGTAATCCGTATTTGTA (site ACGGTATCTTA) | 3.09
ACGGTCACATGGACCGGTTTTCCCGGTAATCCGTATTTGTA (site ACGGTCACTTA) | 1.59
ACGGTTTCATGGACCGGTTTTCCCGGTAATCCGTATTTGTG (site ACGGTTTCTCA) | 2.4
ACGTACTCATGGACCGGTTTTCCCGGTAATCCGTATTTGGA (site ACGTACTCTTC) | 2.95
ACGTAGGCATGGACCGGTTTTCCCGGTAATCCGTATTTGAA (site ACGTAGGCTTT) | 1.96
ACGTAGGCATGGACCGGTTTTCCCGGTAATCCGTATTTGGC (site AAGTAGGCTGC) | 1.32
ACGTAGGCATGGACCGGTTTTCCCGGTAATCCGTATTTGGC (site ACGTAGGCTGC) | 2.6
ACGTAGGCATGGACCGGTTTTCCCGGTAATCCGTATTTGGC (site AGGTAGGCTGC) | 1.06
ACGTAGGCATGGACCGGTTTTCCCGGTAATCCGTATTTGGC (site ATGTAGGCTGC) | 1.21

Sequence | recombinant UMI read abundance (log10)
ACGTGAGCATGGACCGGTTTTCCCGGTAATCCGTATTTGGA (site ACGTGAGCTTC) | 1.78
ACGTTAGCATGGACCGGTTTTCCCGGTAATCCGTATTTGTG (site ACGTTAGCTCA) | 1.84
ACGTTAGCATGGACCGGTTTTCCCGGTAATCCGTATTTGTG (site CCGTTAGCTCA) | 0.742
ACGTTAGCATGGACCGGTTTTCCCGGTAATCCGTATTTGTG (site GCGTTAGCTCA) | 0.298
ACGTTAGCATGGACCGGTTTTCCCGGTAATCCGTATTTGTG (site TCGTTAGCTCA) | 0.526
ACGTTCACATGGACCGGTTTTCCCGGTAATCCGTATTTGCC (site ACGTTCACTGG) | 2.69
ACGTTGCCATGGACCGGTTTTCCCGGTAATCCGTATTTGTT (site ACGTTGCCTAA) | 0.363
ACTAAAACATGGACCGGTTTTCCCGGTAATCCGTATTTGAG (site ACTAAAACTCT) | 1.77
ACTAAAACATGGACCGGTTTTCCCGGTAATCCGTATTTGAG (site ACTACAACTCT) | 0.0124
ACTAAAACATGGACCGGTTTTCCCGGTAATCCGTATTTGAG (site ACTAGAACTCT) | 0.267
ACTAAAACATGGACCGGTTTTCCCGGTAATCCGTATTTGAG (site ACTATAACTCT) | 0.376
ACTAAAGCATGGACCGGTTTTCCCGGTAATCCGTATTTGAT (site ACTAAAGCTAT) | 2.22
ACTAAAGCATGGACCGGTTTTCCCGGTAATCCGTATTTGAT (site CCTAAAGCTAT) | 0
ACTAAAGCATGGACCGGTTTTCCCGGTAATCCGTATTTGAT (site GCTAAAGCTAT) | 0.0031
ACTAAAGCATGGACCGGTTTTCCCGGTAATCCGTATTTGAT (site TCTAAAGCTAT) | 0.855
ACTACACCATGGACCGGTTTTCCCGGTAATCCGTATTTGGT (site ACTACACCTAC) | 0
ACTACCTCATGGACCGGTTTTCCCGGTAATCCGTATTTGTT (site ACTACCTCTAA) | 1.19
ACTACTGCATGGACCGGTTTTCCCGGTAATCCGTATTTGCC (site ACTACTGCTGG) | 1.54
ACTACTGCATGGACCGGTTTTCCCGGTAATCCGTATTTGCC (site CCTACTGCTGG) | 1.45
ACTACTGCATGGACCGGTTTTCCCGGTAATCCGTATTTGCC (site GCTACTGCTGG) | 0.946
ACTACTGCATGGACCGGTTTTCCCGGTAATCCGTATTTGCC (site TCTACTGCTGG) | 1.03
ACTAGACCATGGACCGGTTTTCCCGGTAATCCGTATTTGAG (site ACTAGAACTCT) | 0.103
ACTAGACCATGGACCGGTTTTCCCGGTAATCCGTATTTGAG (site ACTAGACCTCT) | 0.0176
ACTAGACCATGGACCGGTTTTCCCGGTAATCCGTATTTGAG (site ACTAGAGCTCT) | 0.0203

Sequence | recombinant UMI read abundance (log10)
ACTAGACCATGGACCGGTTTTCCCGGTAATCCGTATTTGAG (site ACTAGATCTCT) | 1.02
ACTAGAGCATGGACCGGTTTTCCCGGTAATCCGTATTTGGT (site ACTAGAGCTAC) | 1.72
ACTAGAGCATGGACCGGTTTTCCCGGTAATCCGTATTTGGT (site ACTAGCGCTAC) | 0.398
ACTAGAGCATGGACCGGTTTTCCCGGTAATCCGTATTTGGT (site ACTAGGGCTAC) | 0.647
ACTAGAGCATGGACCGGTTTTCCCGGTAATCCGTATTTGGT (site ACTAGTGCTAC) | 0.4
ACTAGTACATGGACCGGTTTTCCCGGTAATCCGTATTTGAC (site ACTAGTACTGT) | 2.14
ACTAGTCCATGGACCGGTTTTCCCGGTAATCCGTATTTGGT (site ACTAGTACTAC) | 0.0112
ACTAGTCCATGGACCGGTTTTCCCGGTAATCCGTATTTGGT (site ACTAGTCCTAC) | 0.00473
ACTAGTCCATGGACCGGTTTTCCCGGTAATCCGTATTTGGT (site ACTAGTGCTAC) | 0.00689
ACTAGTCCATGGACCGGTTTTCCCGGTAATCCGTATTTGGT (site ACTAGTTCTAC) | 0.244
ACTAGTGCATGGACCGGTTTTCCCGGTAATCCGTATTTGGC (site ACTAGTGCTAC) | 0.0845
ACTAGTGCATGGACCGGTTTTCCCGGTAATCCGTATTTGGC (site ACTAGTGCTCC) | 0.0166
ACTAGTGCATGGACCGGTTTTCCCGGTAATCCGTATTTGGC (site ACTAGTGCTGC) | 2.6
ACTAGTGCATGGACCGGTTTTCCCGGTAATCCGTATTTGGC (site ACTAGTGCTTC) | 0.32
ACTAGTGCATGGACCGGTTTTCCCGGTAATCCGTATTTGGT (site AATAGTGCTAC) | 0.282
ACTAGTGCATGGACCGGTTTTCCCGGTAATCCGTATTTGGT (site ACAAGTGCTAC) | 0.762
ACTAGTGCATGGACCGGTTTTCCCGGTAATCCGTATTTGGT (site ACCAGTGCTAC) | 1.02
ACTAGTGCATGGACCGGTTTTCCCGGTAATCCGTATTTGGT (site ACGAGTGCTAC) | 0.586
ACTAGTGCATGGACCGGTTTTCCCGGTAATCCGTATTTGGT (site ACTAATGCTAC) | 0.409
ACTAGTGCATGGACCGGTTTTCCCGGTAATCCGTATTTGGT (site ACTACTGCTAC) | 0.285
ACTAGTGCATGGACCGGTTTTCCCGGTAATCCGTATTTGGT (site ACTAGAGCTAC) | 1.08
ACTAGTGCATGGACCGGTTTTCCCGGTAATCCGTATTTGGT (site ACTAGCGCTAC) | 0.00815
ACTAGTGCATGGACCGGTTTTCCCGGTAATCCGTATTTGGT (site ACTAGGGCTAC) | 0.0226
ACTAGTGCATGGACCGGTTTTCCCGGTAATCCGTATTTGGT (site ACTAGTACTAC) | 0.998
